Results taken from patent US20070026090A1, “Treatment and prevention of inflammatory disease and mitochondrial dysfunction with high dose selenium” (priority 2003, published 2007).
Entries after “also recorded” stand apart in the source; their conditions may differ.

Legend:
[1] = system: AOM-induced colon cancer; details: up to 5.4 ppm in water; cited from earlier work
[2] = system: Electron Transport Chain (complex 1); assay: Oxygen consumption of fresh colon tissue with rotenone; details: healthy rat colon tissue; 20 μg/ml rotenone (FIG. 4)
Protocol: Mitochondrial respiration activity in colon tissue: Mitochondrial respiration was measured by direct assessment of oxygen consumption of the tissue. Briefly, colons were removed, chilled on ice, and washed extensively with cold PBS. Colon tissue samples (5-10 mm in width, 100 mg) were incubated at ambient temperature in PBS supplemented with 5 mM glucose. Oxygen consumption was measured polarographically using a computerized Clark-type oxygen electrode. The addition of the Electron Transport Chain (complex 1) inhibitor rotenone was used to determine whether the majority of oxygen consumption measured in the colon samples was mitochondrial respiration-dependent.

[3] = system: myeloperoxidase (MPO) activity; assay: Tissue inflammation: myeloperoxidase activity in colon tissue; type: in vivo, rat; details: 24 h after TNBS; 16 ppm sodium selenite in drinking water, three weeks (FIG. 3 column D)
Protocol: Tissue inflammation-Myeloperoxidase activity: Colonic tissue samples (approximately 100-120 mg) were collected 4 cm proximal to the anus. Each tissue sample was homogenized in a solution containing 0.5% hexa-decyl-trimethyl-ammonium bromide (HTAB) (Sigma-Aldrich Corp, St. Louis, Mo.) buffer (0.5% HTAB in 50 mM phosphate buffer, pH 6.0). Tissue samples were minced in a test tube containing 1 ml of HTAB buffer on ice and homogenized with a Polytron tissue homogenizer (Brinkmann Instruments, Inc, Westbury N.Y., USA). The pooled homogenates and washes were sonicated in water for 20 seconds. After three cycles of freeze-thawing, the sonicated samples were centrifuged in cold for 15 min. at 40,000×g. Myeloperoxidase activity (MPO) was assayed in the supernatant as described by Krawisz (Krawisz et al., 1984) after addition of O-dianizidine-HCl (Sigma-Aldrich Corp, St Louis, Mo.) and 0.15% (v/v) H2O2 as a substrate for the MPO. The rate of change in absorbance was measured spectrophotometrically at 460 nm, and is expressed as the amount of enzyme necessary to produce a change in absorbance of 1.0 unit per minute (1 unit) per gram wet weight tissue.

[4] = system: MnSOD; assay: MnSOD transcription and expression (RTPCR, Western blot); type: cell-based, murine; details: LPS + INFγ activated; 24 hours; range 0.5-5 μM (FIG. 11)
Protocol: (§1) Cell culture: Murine J774.2 macrophages (kindly provided by Prof. Dov Zipori from the Weizmann Institute of Science) were grown in RPMI medium supplemented with 10% (w/v) fetal calf serum, penicillin (100 U/ml), streptomycin (100 μg/ml) and 1× glutamine at 37° C. in a humidified atmosphere consisting of 95% air and 5% CO2. Experiments were performed on cells at 60% confluence.
(§2) Western blots (Sp1, MnSOD, UCP2): Cells were grown in six-well tissue culture plates, treated with selenium for 72 h and activated with LPS and IFN-γ for 24 h. The wells were washed with PBS, scraped and centrifuged
(5 min. 2000 RPM), and lysed by addition of boiling hot lysis buffer (1% SDS, 1 mM sodium ortho-vanadate, 10 mM Tris pH 7.4) to the pellets. Protein content was measured (BIO RAD protein assay kit) and equalized. Sample buffer (containg SDS) was added and the samples were boiled. The samples were subjected to SDS-PAGE followed by western blot analysis. Separated proteins were transferred electrophoretically from the gel to a nitrocellulose membrane (Amersham International plc, Buckinghamshire, ENGLAND). The membrane was blocked in TBS (0.15 M NaCl/10 mM Tris/HCl, pH7.4) containing 5% (v/v) skimmed milk (Blotto), then incubated over night with primary antibodies at RT (diluted 1/2000 in blotto). After being washed six times in TBST [TBS containing 0.05% (v/v) Tween 20], the membrane was incubated for 2 h at room temperature with secondary antibody (diluted 1/5000 in blotto). Immunoreactive bands were detected with ECL western blotting detection reagents (Amersham Pharmacia Biotech, Buckingammshire England) and developed on film (Fuji super RX, Dusseldorf, Germany). […]
Right (antisense) 5′[…]-3′ (SEQ ID NO: 6) corresponding to nucleotides 622 to 640 of mouse mRNA region (GenBank Accession No. NM 013671). […] Actual PCR product was approximately 570 bp, measured on 1.25% agarose gel in TAE containing ethidium bromide.
(§3) PCR was performed with 28 cycles (25 cycles for GAPDH) of 30 seconds at 96° C., 30 seconds at 58° C. and 1 min at 72° C. RTPCR products were analyzed on 1.3% (w/v) agarose gels.

[5] = Cell viability (PI exclusion, flow cytometry); type: cell-based, murine; details: mouse, 10 μM during or after activation (FIGS. 14A, 14B); read-out: decrease in cell viability, activated and inactivated cells
Protocol: Experiments were performed on cells at 60% confluence.
Determination of cell viability: Cell-membrane integrity was detected by flow cytometer (FACSort, Becton Dickenson and Co., San Jose, Calif. USA) as a measurement of cell viability. For this assay, the nonpermeant DNA-intercalating dye propidium iodide (PI), which is excluded by viable cells, was used. Fluorescence settings were excitation at 488 nm and emission at 575 nm. Data were collected from at least 10,000 cells.

[6] = mice and rats; up to 0.8 mg/kg body weight selenium; cited from earlier work
[7] = Selenium incorporation into colon tissue (ICP-AES); type: in vivo, rat
Protocol: Measurement of selenium incorporation into colon tissue: inductively coupled plasma (ICP) method: Colon tissue samples were prepared for analysis of selenium content by microwave-assisted digestion using an MLS 1200 mega microwave digestion unit [Milestone Sorisole (BG), Italy]. At the conclusion of the digestion period the vessels were allowed to cool down to room temperature and were uncapped. Liquid residues were taken up in water, transferred into 25-ml calibrated flasks and equilibrated to 25 ml volume with water. Analyses were conducted on portions of these solutions, versus multi-element selenium standards from Merck (Merck and Co, EMBD Biosciences, San Diego Calif.) in the same solvent. Selenium (Se) was determined by ICP-atomic emission spectrometry (AES) at 196.090 nm. An ICP-AES system, model “Spectroflame Modula E” from Spectro, Kleve, Germany was used with a cross-flow nebulizer. The power level was 1.2 kW, coolant flow 15 l/min, auxiliary flow 0.5 l/min and nebulizer flow 0.5 l/min. Observation height was 10 mm above the coil.

[8] = system: UCP2; assay: UCP2 transcription and expression (RTPCR, Western blot); type: cell-based, murine
Protocol: as §1, §2
(5 min. 2000 RPM), and lysed by addition of boiling hot lysis buffer (1% SDS, 1 mM sodium ortho-vanadate, 10 mM Tris pH 7.4) to the pellets. Protein content was measured (BIO RAD protein assay kit) and equalized. Sample buffer (containg SDS) was added and the samples were boiled. The samples were subjected to SDS-PAGE followed by western blot analysis. Separated proteins were transferred electrophoretically from the gel to a nitrocellulose membrane (Amersham International plc, Buckinghamshire, ENGLAND). The membrane was blocked in TBS (0.15 M NaCl/10 mM Tris/HCl, pH7.4) containing 5% (v/v) skimmed milk (Blotto), then incubated over night with primary antibodies at RT (diluted 1/2000 in blotto). After being washed six times in TBST [TBS containing 0.05% (v/v) Tween 20], the membrane was incubated for 2 h at room temperature with secondary antibody (diluted 1/5000 in blotto). Immunoreactive bands were detected with ECL western blotting detection reagents (Amersham Pharmacia Biotech, Buckingammshire England) and developed on film (Fuji super RX, Dusseldorf, Germany). Primary antibodies for Sp1 and MnSOD were from BD Transduction Laboratories (Becton Dickenson and Co., San Jose, Calif. USA) and for UCP2 from Alpha Diagnostics LTD (Warszaw, Poland). Secondary antibodies were from Jackson ImmunoResearch (Jackson Labs, Bar Harbor, Maine, USA).
Reverse transcriptase-PCR (RTPCR): Total RNA was prepared and isolated by the Tri-Reagent method according to the manufacturer's protocol (Sigma, St. Louis Mo., USA). Total RNA (1 μg) was converted into cDNA using Reverse-iT first strand synthesis kit (Abgene, UK). Amplification of MnSOD and UCP2 sequences was performed by incubating 10 ng equivalents of DNA with the following oligonucleotide primers:
Left (sense), 5′-[…]-3′ (SEQ ID NO:7) corresponding to nucleotides 372 to 392 of mouse mRNA (GenBank Accession No. NM 011671).
Right (antisense) 5′[…]-3′ (SEQ ID NO: 8) corresponding to nucleotides 826 to 846 of mouse mRNA (GenBank Accession No. NM 011671). The expected PCR product was 474 bp. Actual PCR product was approximately 474 bp, measured on 1.25% agarose gel in TAE containing ethidium bromide.
as §3

[9] = system: glutathione peroxidase (GPx); assay: GPx activity in macrophage cell extract; type: cell-based, murine; details: 24 h; range 0.5-30 μM (FIG. 8B)
Protocol: as §1
GPx activity: GPx activity was determined by following the rate of NADPH oxidation at 340 nm in the presence of the substrates: 3 mM glutathione (GSH), 1.2 U glutathione reductase (GR) and 1.5% H2O2, using a microfluorometer plate reader (GENios, Tecan, Austria). The reaction contained 500 μl Tris reaction buffer (100 mM Tris Hcl, 300 mM Kcl, 5 mM EDTA, 1 mM NaN3, pH 7.0), substrates and 100 μl cell extract. Macrophages were treated with selenium for 24 h. Wells were washed twice with PBS, cells permeabilized, and scraped using 200 μl 0.2% Triton X-100. The reaction was recorded every minute for 25 minutes. Slopes were calculated and the results were adjusted according to the protein amount calculated with the Bradford reagent.

[10] = mice, at 60 and 90 days; as selenocysteine; cited from earlier work

In the case of C[Se]CC[C@H](N)C(=O)O [selenomethionine], the anti-cancer treatment effect [1] is given as “ineffective”.
For C=C(C)[C@H]1Cc2c(ccc3c2O[C@@H]2COc4cc(OC)c(OC)cc4[C@@H]2C3=O)O1 [rotenone], the “respiration (O2 consumption) of colon tissue” value [2] was “strongly inhibited; also recorded: significantly reduced”.
For O=[Se](O)O [sodium selenite], the “protection against TNBS-induced inflammation (MPO activity)” value [3] was > 80%, the “lowest concentration effective in reducing MnSOD expression, activated macrophages” value [4] was 1 µM and the cytotoxicity at 10 μM [5] was ≤ 60%. For the same compound, the “adverse effects of long term supplementation” value [6] was “no observable adverse effects”, the “increase in colon tissue selenium levels compared with healthy rats” value ([7]; colitis-induced rats, 24 h after TNBS, 16 ppm in water, three weeks (FIG. 1 C and D)) was “greater” and the “colon tissue selenium vs untreated controls” value ([7]; healthy and colitis rats (columns B and D vs A and C), 16 ppm in drinking water, three weeks) was “enhanced levels”. For the same compound, the “lowest concentration giving a significant decrease in UCP2 transcripts” value ([8]; 24 and 72 hours (FIG. 10A)) was 5 µM, the “reduction in detectable UCP2 protein” value ([8]; 24 hours at 30 μM (FIG. 10B)) was “greater than 50%” and the “lowest concentration effective in reducing UCP2 expression, activated macrophages” value ([8]; LPS + INFγ activated, 24 hours, range 0.5-5 μM (FIG. 11)) was 1 µM. For the same compound, the “concentration of maximum stimulation of GPx activity” value [9] was 0.5 µM.
For N[C@@H](C[SeH])C(=O)O [selenocysteine], the “dietary supplementation at which toxicity was observed” value [10] is listed as “greater than 10 mg selenium per kg body weight per day”.
